Data on ten compounds can be found in PubChem BioAssay AID2060361 (Molecular Pharmacology Branch, DTP, NCI, 2025).

The experiment relates to 463943-066-T-J2-PDC tumor spheroids with HUVEC/MSC, viability. Put plainly: Anticancer human tumor 463943-066-T-J2-PDC patient-derived colon adenocarcinoma cell line growth inhibition [TAK]. The conditions noted are these: for viability, T/C: stronger effect = lower value. The source says: Combinatorial screen of targeted agents with TAK-243 and ipatasertib in multi-cell type tumor spheroids
A high-throughput screen of multi-cell type tumor spheroids was designed to identify active combinations of targeted small molecules and TAK-243 or ipatasertib. Complex spheroids include a stromal component modeled by human endothelial cells (HUVEC) and fibroblasts modeled by human mesenchymal stem cells (MSCs). The concentration ranges selected for each drug and investigational agent were based upon clinically achievable concentrations if the clinical Cmax of the agent was known.
Compounds. The drugs and investigational agents: TAK-243 (785004), ipatasertib (767898), everolimus (733504), selumetinib (741078), bortezomib (756655), trametinib (758246), ixazomib (758254), vemurafenib (761431), dabrafenib (764134), sapanisertib (764658), alpelisib (765974), and copanlisib (816437), were obtained from the National Cancer Institute (NCI) Developmental Therapeutics Program Chemical Repository. The FDA-approved anticancer drug set is available from the NCI Developmental Therapeutics Program. […] The stock solutions were prepared in dimethyl sulfoxide (DMSO, Sigma-Aldrich, St. Louis, MO, cat. D2650) at 800-fold the tested concentration and stored at -70 degrees C prior to their use. All drugs and investigational agents were tested over a range starting from a high concentration at or near the clinical Cmax and decreasing in half-log increments. If the clinical Cmax for an agent had not been determined, the highest concentration tested was 10 microM.
NCI60 Cell Culture. NCI60 cell lines were obtained from the NCI Developmental Therapeutics Program Tumor Repository. For each lot of cells, the Repository performed Applied Biosystems AmpFLSTR Identifiler testing with PCR amplification to confirm consistency with the published Identifier STR profile for each cell line. Cells were kept in continuous culture for no more than 20 passages. The optimal seeding densities for each of the cell lines at each time point assessed were determined prior to performing the concentration response studies. Briefly, the NCI60 human tumor lines were grown as monolayers in RPMI 1640 medium supplemented with 10% FBS and 2 mmol/L L-glutamine.
An additional 2 lines were from the NCI60 cell line panel including melanomas, MALME-3M and SK-MEL-2. Pooled donor human umbilical vein endothelial cells (HUVEC, Lonza, cat. CC-2519) and human mesenchymal stem cells (hMSC, Lonza, cat. PT-2501) were purchased from Lonza (Walkersville, MD).
PDMR cell lines were grown in complete medium (DC medium): Dulbecco's modified Eagle's medium (DMEM)/F12 supplemented with 5% fetal bovine serum (FBS), 2 mM L-glutamine, 100 U/mL penicillin and 100 µg/ml streptomycin, 0.4 µg/ml hydrocortisone, 10 ng/ml epidermal growth factor (EGF) recombinant human protein, 24 µg/mL adenine, and 0.1 mg/mL primocin. During culture from frozen stock vials, PDMR cells were cultured in the same medium containing 10 µM Y-27632 (see Table 3). The PDCs were cultured in complete DMEM/F12 media without 10 microM Y-27632 dihydrochloride for at least two passages prior to the screen. The pooled donor HUVEC and hMSC were cultured in endothelial cell growth medium 2 (PromoCell, Heidelberg, Germany, cat. C-22011) and mesenchymal stem cell growth medium 2 (PromoCell, cat. C-28009), respectively. For all experiments, HUVEC and hMSC were used at passages </=5.
For the pre-screen, cell seeding densities were determined from a titration spanning the range from 5,000 to 313 cells per well. The mct-spheroids including 60% malignant cells, 25% HUVEC and 15% MSC dispensed as a mixture into U-bottom Ultra-Low Attachment 384-well plates (Corning, NY)
High-throughput Drug Combination Screening.
Prior to their inoculation into 384-well plates, malignant cells, HUVEC, and hMSC were removed from T flasks using TrypLE express (Thermo Fisher Scientific, cat. 12605036) and harvested by centrifugation for 5 min at 233 x g. […]

pIC50: −log10 of the molar value. Several values for one entry are separate records, joined by “and”; a condition that tells them apart may be missing. Identical values can stand only once.
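Also: spheroids exposed to drugs for seven days.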

By viability, T/C is commonly meant the result in the treated group divided by that in the control group, in per cent. The pIC50 is −log10 of the IC50, conventionally taken in molar units. Regarding `CC(=O)Nc1cccc(-n2c(=O)n(C3CC3)c(=O)c3c(Nc4ccc(I)cc4F)n(C)c(=O)c(C)c32)c1`, the viability, T/C is 104% and 102% (compound 94.9 pM); 93.3% and 98.1% (compound 0.0003 µM); 89.2% and 86.9% (compound 0.000949 µM); 86.5% and 68.9% (compound 0.003 µM); 81.9% and 67.4% (compound 0.00949 µM); 67.2% and 59.4% (compound 0.03 µM). Further, the pIC50 (curve of compound) was below 7.52.

In the case of `CC(C)(C)c1nc(-c2cccc(NS(=O)(=O)c3c(F)cccc3F)c2F)c(-c2ccnc(N)n2)s1`, the viability, T/C by setting is: (compound 0.0316 µM) 116% and 108%; (compound 0.1 µM) 110% and 108%; (compound 0.316 µM) 113% and 103%; (compound 1 µM) 112% and 109%; (compound 3.16 µM) 109% and 116%; (compound 10 µM) 104% and 107%. The pIC50 (curve of compound) was below 5.00.

On to `CC(C)CC(NC(=O)C(Cc1ccccc1)NC(=O)c1cnccn1)B(O)O` (stereo unspecified), for which the viability, T/C is, setting by setting: (compound 31.6 pM) 106% and 127%; (compound 0.0001 µM) 109% and 112%; (compound 0.000316 µM) 97.4% and 97.8%; (compound 0.001 µM) 87.7% and 98.7%; (compound 0.00316 µM) 90.2% and 85.5%; (compound 0.01 µM) 70.7% and 80.7%. Besides, the pIC50 (curve of compound) is below 8.00.

In the case of `CC(C)CC(NC(=O)CNC(=O)c1cc(Cl)ccc1Cl)B1OC(=O)CC(CC(=O)O)(C(=O)O)O1` (stereo unspecified), the viability, T/C (compound 0.000316 µM) was 109% and 95.1%; the viability, T/C (compound 0.001 µM) is 108% and 96.2%; the viability, T/C (compound 0.00316 µM) was 122% and 97.5%; the viability, T/C (compound 0.01 µM) was 100% and 95.3%; the viability, T/C (compound 0.0316 µM) is 82.2% and 73.6%; the viability, T/C (compound 0.1 µM) is 81.4% and 74.8%. Besides, the pIC50 (curve of compound) was below 7.00.

For `CC(C)NCC(C(=O)N1CCN(c2ncnc3c2C(C)CC3O)CC1)c1ccc(Cl)cc1` (stereo unspecified), the viability, T/C (compound 0.3 µM) was 94.2% [middle of 10 runs] and the viability, T/C (compound 3 µM) is 86.9% [middle of 10 runs]. Besides, the negative logarithm of the IC50 (pIC50) (compound alone, run of 02/28/2020) was below 4.52.

As for `CC(C)n1nc(-c2ccc3oc(N)nc3c2)c2c(N)ncnc21`, the viability, T/C is, setting by setting: (compound 0.000316 µM) 115% and 102%; (compound 0.001 µM) 103%; (compound 0.00316 µM) 93.7% and 84.9%; (compound 0.01 µM) 75.8% and 92.2%; (compound 0.0316 µM) 83.8% and 77.3%; (compound 0.1 µM) 82.8% and 76.9%. Besides, the pIC50 (curve of compound) is below 7.00.

For the compound `COC1CC2CCC(C)C(O)(O2)C(=O)C(=O)N2CCCCC2C(=O)OC(C(C)CC2CCC(OCCO)C(OC)C2)CC(=O)C(C)C=C(C)C(O)C(OC)C(=O)C(C)CC(C)C=CC=CC=C1C` (stereo unspecified), the viability, T/C was 101% and 107% (compound 0.000316 µM); 91% and 91.9% (compound 0.001 µM); 87.1% and 85.7% (compound 0.00316 µM); 83.7% and 89.1% (compound 0.01 µM); 85.6% and 91.5% (compound 0.0316 µM); 76.8% and 86% (compound 0.1 µM). The pIC50 (curve of compound) is below 7.00.

Take `COc1c(OCCCN2CCOCC2)ccc2c3n(c(=NC(=O)c4cnc(N)nc4)nc12)CCN3`: the viability, T/C is, setting by setting: (compound 0.00316 µM) 93.7% and 101%; (compound 0.01 µM) 88.3% and 90.3%; (compound 0.0316 µM) 84.4% and 86.9%; (compound 0.1 µM) 80.3% and 85%; (compound 0.316 µM) 77.4% and 77.2%; (compound 1 µM) 68.1% and 72.1%. Further, the pIC50 (curve of compound) is below 6.00.

Consider `Cc1nc(NC(=O)N2CCCC2C(N)=O)sc1-c1ccnc(C(C)(C)C(F)(F)F)c1` (stereo unspecified), for which the viability, T/C is, setting by setting: (compound 0.0316 µM) 96.2% and 102%; (compound 0.1 µM) 103% and 91.1%; (compound 0.316 µM) 87.7% and 90.1%; (compound 1 µM) 78.6% and 84.6%; (compound 3.16 µM) 81.1% and 78.6%; (compound 10 µM) 78.6% and 73.7%. Moreover, the pIC50 (curve of compound) is below 5.00.

`Cn1cnc2c(F)c(Nc3ccc(Br)cc3Cl)c(C(=O)NOCCO)cc21`: the viability, T/C was 101% and 106% (compound 0.00949 µM); 99.1% and 108% (compound 0.03 µM); 77.1% and 84% (compound 0.0949 µM); 85.9% and 76% (compound 0.3 µM); 64.1% and 78.2% (compound 0.949 µM); 62.4% and 57.4% (compound 3 µM). Where the note is “curve of compound”, the pIC50 is below 5.52.
